Measurements: patent US20130158098A1, “Alkenyl Substituted Cycloaliphatic Compounds as Chemical Inducers of Proximity” (priority 2010, published 2013)
Entries after “also recorded” stand apart in the source; their conditions may differ.

Assays:
[1] = system: ERK1/2 phosphorylation (SOS-PYLcs and myr-ABIcs); experiment: SOS activation: ABA-induced ERK phosphorylation by SOS localization; type: cell-based, human; conditions: cells expressing SOS-PYLcs and myr-ABIcs; 250 μM ABA
Method: Six-well plates of 293T cells containing 0.5×10^6 cells per well were transfected with 3 μg of total DNA using FuGENE HD (Roche). Cells were transfected with expression plasmids encoding myr-ABI, SOS-PYL, SOS-FKBP, myr-SOS, and an expression vector control, pUC19. ABA (250 μM) was added at 3, 6, 12, and 24 hours before harvesting the cells. Cells were lysed in 1× lysis buffer [50 mM Tris-HCl (pH 7.5), 300 mM NaCl, 1% NP-40, 0.1% SDS, 0.5% sodium deoxycholate, 20 mM NaF, 1 mM Na3VO4, 1 mM phenylmethylsulfonyl fluoride (PMSF), and 1× protease inhibitor mixture (Calbiochem)] for 20 min at 4° C. After centrifugation at 14,000 g for 15 min, proteins were separated on 4 to 12% bis-tris NuPAGE gels (Invitrogen) and transferred to polyvinylidene difluoride membranes. […] Infrared dye 800 and 680 anti-rabbit or anti-mouse secondary antibodies were incubated at room temperature for 1 hour in 10% BSA-PBST and detected with a LI-COR/Odyssey scanner. […]

[2] = Bioavailability of ABA in mice (serum tested by luciferase activation); type: in vivo, mouse
Method: Mice were housed in the Stanford University Research Animal Facility in accordance with federal and institutional guidelines. Mice aged 6 to 8 weeks and weighing about 30 g were orally gavaged with 10 mg of ABA in EtOH/Tween 20/Cremophor (4:3:1; […] or just vehicle with syringes. Blood was collected from the tails of mice at the indicated time after gavage and left on ice for 20 min. After blood was coagulated, the samples were spun down at 1500 g for 20 min and serum was collected for immediate use or snap-frozen and stored at −80° C.
FIG. 5A illustrates the bio-availability of ABA in mice by intraperitoneal injection. With 100 mg ABA/kg mouse body weight, ABA is rapidly available in 30 minutes and still remains in the system after 4 hours. ABA was intraperitoneally injected to mice and serum was collected at indicated time. ABA containing serum was then added as 10% (v/v) of culture media to the CHO cell culture for 24 hours and cells were assayed for luciferase activity. The CHO cells were pre-transfected with the activation and reporter DNA constructs for 24 hours before adding serum. […] With 340 mg ABA/kg mouse body weight, ABA is rapidly available in 1 hour, remains in the system after 8 hours and returns to background level after 24 hours. ABA was orally administrated by gavage to mice and serum was collected at indicated time. ABA containing serum was then added as 10% (v/v) of culture media to the CHO cell culture for 24 hours and cells were assayed for luciferase activity. The CHO cells were pre-transfected with the activation and reporter DNA constructs for 24 hours before adding serum.
In plants, ABA had been reported to be unstable due to active enzymatic degradation (Cutler, A. J. and Krochko, J. E. (1999) Formation and breakdown of ABA. Trends Plant Sci. 4, 472-478). To examine its stability in mammalian cells, ABA was incubated with CHO cells for up to 48 hours, after which the functional ABA concentration was assayed by the ability of the ABA-incubated cell culture medium to induce luciferase production in cells expressing VP16-PYLcs and wild-type Gal4 DBD-ABIcs. […] For potential therapeutic application in humans, the stability of ABA in the serum and its bioavailability in mice was examined (FIG. 16B). The activity of residual ABA in the serum was measured by its ability to induce the transcriptional activation of the luciferase reporter in cells expressing the ABA-activator cassette. The stability of ABA in isolated serum was tested by incubating ABA with fresh human serum or heat-inactivated fetal bovine serum (FBS) for up to 48 hours and then applying the serum as the ABA source to activate luciferase. […] Using this assay, the bioavailability in mice was evaluated. When ABA was injected intraperitoneally, it entered circulation rapidly, and activity was detectable within 30 min (FIG. 33).

[3] = intraperitoneal injection, 100 mg ABA/kg

CC1=CC(=O)CC(C)(C)C1(O)/C=C/C(C)=C/C(=O)O (stereo not drawn) [ABA, abscisic acid]
phosphorylation of ERK [1]: induced the phosphorylation of ERK | oral availability [2]: orally bioavailable; also recorded: orally available | time to detectable activity in circulation ([2]; injected intraperitoneally): ≤ 30 min | time ABA still remains in the system [2, 3]: ≥ 4 h | time at which ABA is available in serum [2, 3]: 30 min | half-life ([2]; mouse, serum, po, 340 mg/kg, administered orally): ~240 min | time ABA remains in the system ([2]; oral gavage, 340 mg ABA/kg): ≥ 8 h | time at which ABA is available in serum ([2]; oral gavage, 340 mg ABA/kg): 60 min | time of return to background level ([2]; oral gavage, 340 mg ABA/kg): 24 h
